{"source": "paper PMC9081362", "about": "“Novel MDM2 Inhibitor XR-2 Exerts Potent Anti-Tumor Efficacy and Overcomes Enzalutamide Resistance in Prostate Cancer” (Frontiers in Pharmacology, 2022)", "target": "MDM2 (Homo sapiens, UniProt Q00987)", "sequence (Q00987 whole entry)": "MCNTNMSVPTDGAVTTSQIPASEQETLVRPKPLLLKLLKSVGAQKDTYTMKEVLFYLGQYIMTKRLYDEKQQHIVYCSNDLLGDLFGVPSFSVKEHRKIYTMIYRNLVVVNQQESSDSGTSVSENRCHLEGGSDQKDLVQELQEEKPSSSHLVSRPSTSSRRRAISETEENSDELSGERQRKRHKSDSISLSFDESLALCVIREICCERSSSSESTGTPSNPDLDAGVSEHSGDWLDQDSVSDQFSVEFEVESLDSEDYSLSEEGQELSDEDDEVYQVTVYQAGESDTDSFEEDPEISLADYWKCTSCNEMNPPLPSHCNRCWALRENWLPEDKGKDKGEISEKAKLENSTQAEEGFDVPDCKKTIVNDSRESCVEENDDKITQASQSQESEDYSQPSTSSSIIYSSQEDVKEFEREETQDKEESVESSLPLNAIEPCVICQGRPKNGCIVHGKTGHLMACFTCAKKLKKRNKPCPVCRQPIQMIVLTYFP", "sequence (P04637 whole entry partner)": "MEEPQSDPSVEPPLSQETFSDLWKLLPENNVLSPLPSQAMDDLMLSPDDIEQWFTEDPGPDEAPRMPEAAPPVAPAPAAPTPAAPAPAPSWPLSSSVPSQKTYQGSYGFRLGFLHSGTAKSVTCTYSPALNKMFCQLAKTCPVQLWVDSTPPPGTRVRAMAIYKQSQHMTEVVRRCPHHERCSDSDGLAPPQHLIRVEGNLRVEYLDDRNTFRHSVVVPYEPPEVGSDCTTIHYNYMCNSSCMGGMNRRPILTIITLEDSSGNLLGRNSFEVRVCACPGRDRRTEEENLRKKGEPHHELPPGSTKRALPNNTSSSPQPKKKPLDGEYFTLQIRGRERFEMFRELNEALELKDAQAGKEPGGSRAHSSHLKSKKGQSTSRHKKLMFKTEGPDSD", "assay": "HTRF MDM2-p53 binding (displacement) assay"}
{"smiles": "COCCOCCOCCOC(=O)N1[C@@H](CC(C)(C)C)[C@@]2(C(=O)Nc3cc(Cl)ccc32)[C@@H](c2cccc(Cl)c2F)[C@@H]1C(=O)Nc1ccc(C(N)=O)cc1OC", "note": "[XR-2, 2-(2-(2-methoxyethoxy)ethoxy)ethyl-(2′S,3R,4′S,5′R)-5'-((4-carbamoyl-2-methoxyphenyl)carbamoyl)-6-chloro-4'-(3-chloro-2-fluorophenyl)-2′-neopentyl-2-oxospiro[indoline-3,3′-pyrrolidine]-1′-carboxylate]", "values": [{"measurement": "HTRF MDM2-p53 binding (displacement) assay", "value": "The homogeneous time-resolved fluorescence binding assay proved that XR-2 directly inhibited MDM2–p53 interaction"}]}
